Columns and labels:
[1] = tested on: colon cancer; conditions: in vitro; cited from earlier work
[2] = cited from earlier work
[3] = tested on: BM cells isolated from leukemic Pten:β-cat^Act double mutants (LSCs, HSPCs); assay: In vitro treatment of BM cells from leukemic mice, flow cytometry for LSCs and HSPCs; assay type: cell-based, mouse; conditions: BM cells from leukemic double mutants in vitro
Description: Doxorubicin, 0105375, and thioguanosine were added to 11, 33 or 100 nM and cultured for 72 hours and analyzed by flow cytometry for LSCs (a) and HSPCs (b) as in FIG. 1. Fold change before and after culture for each population is indicated relative to equivalent vehicle control concentrations.
Bone marrow cells from leukemic mice at 8 weeks post-induction were cultured overnight at 5-20×10^4 cells per well in 96-well U-bottom tissue culture plates (Becton, Dickinson and Company; Cat. No. 353077) in HSC expansion media in low O2 conditions as previously described (Perry, J. M. et al. Cooperation between both Wnt/{beta}-catenin and PTEN/PI3K/Akt signaling promotes primitive hematopoietic stem cell self-renewal and expansion. Genes Dev 25, 1928-1942 (2011)). Doxorubicin (Sigma; D1515), 0105375 ((S)-N-(2-bromobenzyl)-N-(1-hydroxy-3-phenylpropan-2-yl)ethenesulfonamide, University of Kansas CMLD compound), or Thioguanosine was mixed with HSC expansion media and added to the cultures to obtain final concentrations of 11, 33, 100 nM. Equivalent amounts of DMSO alone (vehicle control) were added to parallel cultures for comparison. Half-media changes were performed approximately every 24 hrs. Cultures were analyzed after 72 hrs exposure to the indicated drug.

[4] = tested on: pan β-catenin; assay: Western analysis of pan β-catenin in compound-treated TOP and FOP cells; conditions: TOP and FOP cells treated 48 hours at EC90, EC50, EC25
Description: (§1) Cytotoxicity profiles (CTG) of compounds were also determined. […] TOP and FOP cells were treated with candidate compounds at EC90, EC50 and EC25 derived from (b) for 48 hours, washed and flash frozen for Western analysis (c).
(§2) Activity of compounds was tested against HEK-TOP cells vs. HEK FOP cells for inhibition of luciferase activity. The cytotoxicity profiles of the compounds were also tested using Cell Titer Glo assay (Promega) on HEK-TOP cell lines. […] The HEK cells and HEK Top cells were plated at 300,000 cells/well in 6 well plates and were treated in duplicate with EC90, EC50 and EC25 concentrations of the 25 repurchased compounds as well as three controls. After 48 h of exposure, the cells were washed with PBS and flash frozen. The frozen cells were lysed directly in plates for Western analysis.

[5] = tested on: pS^552-β-catenin; assay: Western analysis of pS552-β-catenin in compound-treated TOP and FOP cells
Description: as §1, §2

Compound: Oc1nc(-c2ccc(C(F)(F)F)cc2)nc2c1CSCC2 [XAV-939]
- reversal of resistance to PI3K and Akt inhibitors [1]: reverse this resistance in vitro
- activity in vivo [2]: low activity of this inhibitor in vivo

Compound: C=CS(=O)(=O)N(Cc1ccccc1Br)[C@H](CO)Cc1ccccc1 [compound 0105375, (S)-N-(2-bromobenzyl)-N-(1-hydroxy-3-phenylpropan-2-yl)ethenesulfonamide]
- potency relative to DXR [3]: far less potency than DXR
- effect on pan β-catenin (Western) [4]: no significant effect on pan β-catenin
- inhibition of pS552-β-catenin (Western) ([5]; TOP and FOP cells treated 48 hours at EC90, EC50, EC25): effectively inhibited pS^552-β-catenin
- concentration needed to inhibit pS552-β-catenin ([5]; relatively high concentrations): > 1 μM

From patent US11173173B2, “Methods for treating chemoresistant cancer-initiating cells” (UNIVERSITY OF CONNECTICUT, priority 2015, dated 2021)
